± gives the expanded uncertainty stated by the source.
Assay: cn = amount concentration of the nth substance listed, in mol/dm3
Details: 101 kPa, Liquid, Dip Cell

CCCCCCCCCCCCCCCC[N+](C)(C)CCCCCC[N+](C)(C)CCCCCCCCCCCCCCCC.[Br-].[Br-] + O
electrical conductivity [S/m]
Details | 298 K | 303 K | 308 K | 313 K
c1 = 3.3e-06 | 7.1e-08 ± 1e-09 | 7.2e-08 ± 1e-09 | 7.3e-08 ± 1e-09 | 7.5e-08 ± 1e-09
c1 = 6.6e-06 | 1.31e-07 ± 4e-09 | 1.53e-07 ± 1e-09 | 1.22e-07 ± 2e-09 | 1.33e-07 ± 2e-09
c1 = 9.9e-06 | 2.04e-07 ± 3e-09 | 2.14e-07 ± 1e-09 | 2.09e-07 ± 3e-09 | 1.92e-07 ± 4e-09
c1 = 1.32e-05 | 2.59e-07 ± 2e-09 | 2.69e-07 ± 3e-09 | 2.84e-07 ± 3e-09 | 2.42e-07 ± 6e-09
c1 = 1.64e-05 | 3.27e-07 ± 4e-09 | 3.46e-07 ± 4e-09 | 3.66e-07 ± 3e-09 | 3.21e-07 ± 1e-08
c1 = 1.96e-05 | 3.99e-07 ± 2e-09 | 4.09e-07 ± 3e-09 | 4.21e-07 ± 3e-09 | 3.95e-07 ± 6e-09
c1 = 2.28e-05 | 4.86e-07 ± 8e-09 | 5.06e-07 ± 4e-09 | 5.18e-07 ± 5e-09 | 4.69e-07 ± 1e-08
c1 = 2.6e-05 | 5.26e-07 ± 3e-09 | 5.46e-07 ± 5e-09 | 5.67e-07 ± 3e-09 | 5.41e-07 ± 5e-09
c1 = 2.91e-05 | 6.16e-07 ± 6e-09 | 6.36e-07 ± 5e-09 | 6.57e-07 ± 4e-09 | 6.23e-07 ± 9e-09
c1 = 3.23e-05 | 6.92e-07 ± 4e-09 | 7.02e-07 ± 5e-09 | 7.22e-07 ± 4e-09 | 6.81e-07 ± 7e-09
c1 = 3.54e-05 | 7.86e-07 ± 8e-09 | 8.06e-07 ± 6e-09 | 8.22e-07 ± 6e-09 | 7.7e-07 ± 1.3e-08
c1 = 3.85e-05 | 8.34e-07 ± 5e-09 | 8.54e-07 ± 7e-09 | 8.91e-07 ± 5e-09 | 8.38e-07 ± 1.2e-08
c1 = 4.15e-05 | 9.29e-07 ± 1e-08 | 9.49e-07 ± 6e-09 | 9.65e-07 ± 7e-09 | 9.01e-07 ± 1.4e-08
c1 = 4.46e-05 | 9.65e-07 ± 7e-09 | 9.95e-07 ± 9e-09 | 1.042e-06 ± 6e-09 | 9.69e-07 ± 1.5e-08
c1 = 4.76e-05 | 1.031e-06 ± 6e-09 | 1.031e-06 ± 7e-09 | 1.071e-06 ± 6e-09 | 1.041e-06 ± 8e-09
c1 = 5.06e-05 | 1.084e-06 ± 6e-09 | 1.084e-06 ± 7e-09 | 1.113e-06 ± 7e-09 | 1.113e-06 ± 6e-09
c1 = 5.36e-05 | 1.145e-06 ± 6e-09 | 1.145e-06 ± 7e-09 | 1.17e-06 ± 7e-09 | 1.18e-06 ± 7e-09
c1 = 5.66e-05 | 1.186e-06 ± 8e-09 | 1.206e-06 ± 8e-09 | 1.226e-06 ± 8e-09 | 1.246e-06 ± 7e-09
c1 = 5.96e-05 | 1.209e-06 ± 8e-09 | 1.249e-06 ± 9e-09 | 1.269e-06 ± 9e-09 | 1.299e-06 ± 9e-09
c1 = 6.25e-05 | 1.272e-06 ± 8e-09 | 1.292e-06 ± 8e-09 | 1.312e-06 ± 9e-09 | 1.352e-06 ± 1e-08
c1 = 6.54e-05 | 1.326e-06 ± 1e-08 | 1.356e-06 ± 9e-09 | 1.376e-06 ± 8e-09 | 1.396e-06 ± 9e-09
c1 = 6.83e-05 | 1.359e-06 ± 8e-09 | 1.379e-06 ± 8e-09 | 1.399e-06 ± 1e-08 | 1.447e-06 ± 1.2e-08
c1 = 7.12e-05 | 1.396e-06 ± 8e-09 | 1.416e-06 ± 1e-08 | 1.456e-06 ± 1.1e-08 | 1.486e-06 ± 1.1e-08
c1 = 7.41e-05 | 1.437e-06 ± 9e-09 | 1.457e-06 ± 9e-09 | 1.477e-06 ± 1.2e-08 | 1.541e-06 ± 1.5e-08
c1 = 7.69e-05 | 1.462e-06 ± 9e-09 | 1.482e-06 ± 9e-09 | 1.512e-06 ± 1.3e-08 | 1.59e-06 ± 1.8e-08

CCCCCCCCCCCCCCCC[N+](C)(C)CCCCC[N+](C)(C)CCCCCCCCCCCCCCCC.[Br-].[Br-] + O
electrical conductivity [S/m]
Details | 298 K | 303 K | 308 K | 313 K
c1 = 3.3e-06 | 6.8e-05 | 6.9e-05 | 7e-05 | 7.1e-05
c1 = 6.6e-06 | 0.000129 | 0.000135 | 0.000148 | 0.00015
c1 = 9.9e-06 | 0.00021 | 0.000219 | 0.00023 | 0.000236
c1 = 1.32e-05 | 0.000279 | 0.00029 | 0.000292 | 0.000308
c1 = 1.64e-05 | 0.000358 | 0.000376 | 0.000385 | 0.000396
c1 = 1.96e-05 | 0.000418 | 0.000432 | 0.000442 | 0.000456
c1 = 2.28e-05 | 0.000495 | 0.000505 | 0.000514 | 0.000519
c1 = 2.6e-05 | 0.000557 | 0.000564 | 0.000579 | 0.000584
c1 = 2.91e-05 | 0.000634 | 0.000646 | 0.000659 | 0.000684
c1 = 3.23e-05 | 0.000684 | 0.000699 | 0.000715 | 0.000732
c1 = 3.54e-05 | 0.000746 | 0.000766 | 0.000779 | 0.000789
c1 = 3.85e-05 | 0.000803 | 0.000816 | 0.000826 | 0.00087
c1 = 4.15e-05 | 0.000873 | 0.000873 | 0.000896 | 0.000945
c1 = 4.46e-05 | 0.000935 | 0.000935 | 0.000956 | 0.000998
c1 = 4.76e-05 | 0.001 | 0.001 | 0.00101 | 0.00108
c1 = 5.06e-05 | 0.00103 | 0.00105 | 0.00106 | 0.00112
c1 = 5.36e-05 | 0.00109 | 0.00113 | 0.00113 | 0.00115
c1 = 5.66e-05 | 0.00113 | 0.00116 | 0.00116 | 0.00121
c1 = 5.96e-05 | 0.00119 | 0.00122 | 0.00123 | 0.00125
c1 = 6.25e-05 | 0.00123 | 0.00127 | 0.00129 | 0.00129
c1 = 6.54e-05 | 0.00128 | 0.00132 | 0.00135 | 0.00135
c1 = 6.83e-05 | 0.00133 | 0.00137 | 0.00138 | 0.0014
c1 = 7.12e-05 | 0.00137 | 0.00142 | 0.00145 | 0.00144
c1 = 7.41e-05 | 0.00142 | 0.00146 | 0.00147 | 0.00148
c1 = 7.69e-05 | 0.00144 | 0.00149 | 0.0015 | 0.00152

CCCCCCCCCCCCCCCC[N+](C)(C)CCCC[N+](C)(C)CCCCCCCCCCCCCCCC.[Br-].[Br-] + O
electrical conductivity [S/m]
Details | 298 K | 303 K | 308 K | 313 K
c1 = 3.3e-06 | 6.6e-05 | 6.6e-05 | 6.7e-05 | 6.8e-05
c1 = 6.6e-06 | 0.000121 | 0.000134 | 0.00015 | 0.00016
c1 = 9.9e-06 | 0.000187 | 0.000196 | 0.000207 | 0.000227
c1 = 1.32e-05 | 0.000256 | 0.000274 | 0.00029 | 0.000301
c1 = 1.64e-05 | 0.000326 | 0.000336 | 0.000346 | 0.000372
c1 = 1.96e-05 | 0.000397 | 0.000407 | 0.000429 | 0.000449
c1 = 2.28e-05 | 0.000463 | 0.000486 | 0.000507 | 0.000527
c1 = 2.6e-05 | 0.000539 | 0.000539 | 0.000559 | 0.000575
c1 = 2.91e-05 | 0.000615 | 0.000626 | 0.000642 | 0.000666
c1 = 3.23e-05 | 0.00067 | 0.000679 | 0.000695 | 0.000715
c1 = 3.54e-05 | 0.000736 | 0.000746 | 0.000766 | 0.000787
c1 = 3.85e-05 | 0.000789 | 0.000799 | 0.000799 | 0.000851
c1 = 4.15e-05 | 0.000856 | 0.000866 | 0.000889 | 0.000901
c1 = 4.46e-05 | 0.000916 | 0.000926 | 0.000946 | 0.000966
c1 = 4.76e-05 | 0.000962 | 0.000985 | 0.001 | 0.00103
c1 = 5.06e-05 | 0.001 | 0.00102 | 0.00105 | 0.00108
c1 = 5.36e-05 | 0.00105 | 0.00106 | 0.00108 | 0.0011
c1 = 5.66e-05 | 0.0011 | 0.00112 | 0.00113 | 0.00115
c1 = 5.96e-05 | 0.00116 | 0.00118 | 0.0012 | 0.00122
c1 = 6.25e-05 | 0.00121 | 0.00123 | 0.00125 | 0.00127
c1 = 6.54e-05 | 0.00126 | 0.00126 | 0.00128 | 0.00133
c1 = 6.83e-05 | 0.0013 | 0.00131 | 0.00133 | 0.00137
c1 = 7.12e-05 | 0.00134 | 0.00137 | 0.00138 | 0.0014
c1 = 7.41e-05 | 0.0014 | – | – | –
